# Measurements: patent publication US9301956B2, “Application of cinchona alkaloid derivatives as cytotoxic compounds” (ADAM MICKIEWICZ UNIVERSITY, priority 2014, dated 2016)
# Where “and” joins values, the source holds several entries; their conditions need not be identical. Equal values may be shown once. Read-outs that look alike come from different tables or passages of the source.
# How the values were obtained:
# Assay type in all cases: cell-based
# A549 (lung cancer) = assay: Sulphorhodamine B cytotoxicity test, A549 line; settings: for IC50: Homo sapiens
# Method: (§1) Cytotoxic activity tests were performed using the following cancer cell lines: MCF-7 (breast cancer), HeLa (cervical cancer) A549 (pulmonary cancer) and KB (nasopharynx cancer) obtained from ECACC (European Collection of Cell Cultures). Cytotoxicity tests were carried out using a standard procedure with sulphorhodamine B. They involved incubation of the cancer cell lines in the logarithmic growth phase for 72 hours with the compound tested and, subsequently, spectrophotometric determination of the degree of cell growth inhibition using adsorption of a dye (sulphorhodamine B) which binds cellular proteins. The determination was carried out according to a procedure reported in: Vichai, V., Kirtikara, K. Nature Protocols, 2006, 1, 1112. […] Solutions of the test compounds were prepared in DMSO in the following concentration range: 0.05; 0.1; 0.5; 1; 5; 10; 50; 100 μM. The cells of the lines tested were treated with the solutions of the test compounds in a laminar-flow chamber which ensured sterile working conditions according to the following procedure: the first three wells were used as a control: they contained 20 μL of DMSO only; successive solutions of the test compound were added to subsequent wells (20 μL), starting with the lowest concentration (three wells for each concentration level). Subsequently, the plates were placed in an incubator for 72 hours. After the end of incubation, the adhered cells were fixed by adding 500 μL of cold (4° C.) 50% trichloroacetic acid (TCA) and incubated at 4° C. for 1 hour. Subsequently, each well was rinsed with sterile water and dried. The operation was repeated five times. The fixed cells were stained for 30 minutes by adding 500 μL of 0.4% of a dye solution (sulphorhodamine B) dissolved in 1% acetic acid. […] Subsequently, the plates were dried in air for approx. 5 minutes. Any unbound dye was dissolved by adding 1500 μL of […] Tris-base buffer (trishydroxymethylaminomethane) to each well and shaken using an orbital shaker for 5 minutes. […] Depending on the type of the cell line, the following growth media were used: • the MCF-7 line was grown in Dulbecco's Modified Eagle's Medium (DME) from Sigma (cat. no. […] R8758).
# HeLa (cervical cancer) = assay: Sulphorhodamine B cytotoxicity test, HeLa line; settings: for IC50: Homo sapiens, HeLa
# Method: as §1
# KB (nasopharynx cancer) = assay: Sulphorhodamine B cytotoxicity test, KB line; settings: for IC50: average of three determinations, read-out: Cytotoxic activity, IC50, KB (nasopharynx cancer)
# Method: as §1
# MCF-7 (breast cancer) = assay: Sulphorhodamine B cytotoxicity test, MCF-7 line; settings: for IC50: Homo sapiens, MCF7, 72 h incubation, SRB
# Method: as §1
# [1] = test system: cancer cell lines of breast cancer, cervical cancer, lung cancer and nasopharynx cancer; assay: Sulphorhodamine B cytotoxicity test, cancer cell lines overall (line not specified)
# Method: Cytotoxic activity tests were performed using the following cancer cell lines: MCF-7 (breast cancer), HeLa (cervical cancer) A549 (pulmonary cancer) and KB (nasopharynx cancer) obtained from ECACC (European Collection of Cell Cultures).
# Cytotoxicity tests were carried out using a standard procedure with sulphorhodamine B. They involved incubation of the cancer cell lines in the logarithmic growth phase for 72 hours with the compound tested and, subsequently, spectrophotometric determination of the degree of cell growth inhibition using adsorption of a dye (sulphorhodamine B) which binds cellular proteins. The determination was carried out according to a procedure reported in: Vichai, V., Kirtikara, K. Nature Protocols, 2006, 1, 1112.
# Cancerous cells of the cell line tested in the logarithmic growth phase were seeded onto 24-well plates in a quantity of 20,000 cells/2 mL of the growth medium per well and, subsequently, incubated in an incubator at 37° C., in the 5% CO2 atmosphere for 24 hours. […]
# After the end of incubation, the adhered cells were fixed by adding 500 μL of cold (4° C.) 50% trichloroacetic acid (TCA) and incubated at 4° C. for 1 hour. […] Subsequently, 200 μL of solution from each well was transferred to each of two wells on a new 96-well plate and absorption of the solutions was determined spectrophotometrically at a wavelength of 490-530 nm using a plate reader. […]
# [2] = A549, 72 h incubation, SRB, average of three determinations, read-out: Cytotoxic activity, IC50, A549 (lung cancer)
# [3] = 72 h incubation, SRB, average of three determinations, read-out: Cytotoxic activity, IC50, HeLa (cervical cancer)
# [4] = average of three determinations, read-out: Cytotoxic activity, IC50, MCF-7 line (breast cancer)
smiles,measurement,setting,value
O=c1[nH]c(=O)n([C@H]2C[C@H](O)[C@@H](CO)O2)cc1F [5-fluoro-2′-deoxyuridine],IC50,A549 (lung cancer); [2],3.3 µg/mL and 13.4 µM
same,IC50,HeLa (cervical cancer); [3],3.2 µg/mL and 13 µM
same,IC50,"KB (nasopharynx cancer); 72 h incubation, SRB",3.37 µg/mL and 13.7 µM
same,IC50,MCF-7 (breast cancer); [4],2.81 µg/mL and 11.4 µM
O=c1[nH]cc(F)c(=O)[nH]1 [5-fluorouracil],IC50,A549 (lung cancer); [2],2.78 µg/mL and 21.4 µM
same,IC50,HeLa (cervical cancer); [3],2.73 µg/mL and 21 µM
same,IC50,"KB (nasopharynx cancer); 72 h incubation, SRB",2.86 µg/mL and 22 µM
same,IC50,MCF-7 (breast cancer); [4],2.37 µg/mL and 18.2 µM
"C#CCO[C@@H](c1ccnc2ccccc12)[C@H]1C[C@@H]2CCN1C[C@@H]2C=C [PCN, 9-O-propargylcinchonine]",times as cytotoxic as 5FU,"A549 (lung cancer); A549 (pulmonary cancer), relative to 5FU",more than 1.8 times
same,cytotoxicity compared with 5 FdU,"A549 (lung cancer); A549 (pulmonary cancer), relative to 5 FdU",slightly more cytotoxic
same,times as cytotoxic as 5FU,"HeLa (cervical cancer); HeLa (cervical cancer), relative to 5FU",two times
same,times as cytotoxic as 5 FdU,"HeLa (cervical cancer); HeLa (cervical cancer), relative to 5 FdU",1.2 times
same,in vitro cytotoxicity against cancer cell lines,[1],within the range of high activity
same,"Cytotoxic activity class, KB (nasopharynx cancer)","KB (nasopharynx cancer); 72 h incubation, SRB",(A) (IC50<4 μg/mL are generally assumed as active (abbreviated as A))
same,times as high activity compared to 5FU,"KB (nasopharynx cancer); KB (nasopharynx cancer), relative to 5FU",2.3 times
same,times as high activity compared to 5 FdU,"KB (nasopharynx cancer); KB (nasopharynx cancer), relative to 5 FdU",1.4 times
same,times as cytotoxic as 5FU,"MCF-7 (breast cancer); MCF-7 line, relative to 5FU",more than two times
same,times as active as 5 FdU,"MCF-7 (breast cancer); MCF-7 line, relative to 5 FdU",1.3 times
C=C[C@H]1C[N@@]2CC[C@H]1C[C@@H]2[C@@H](O)c1ccnc2ccccc12 [cinchonine],IC50,"A549 (lung cancer); A549, 72 h, read-out: Cytotoxic activity class, A549 (lung cancer)",4 to 30 µg/mL
same,IC50,"HeLa (cervical cancer); 72 h, read-out: Cytotoxic activity class, HeLa (cervical cancer)",4 to 30 µg/mL
same,IC50,"MCF-7 (breast cancer); read-out: Cytotoxic activity class, MCF-7 line (breast cancer)",4 to 30 µg/mL
